Values of other authors as cited in patent US8911790B2, “Solid composition containing a hypothiocyanite salt” (Alaxia SAS, priority 2011, dated 2014).

Conditions: hypothiocyanite ion, instability of the species

- half-life: less than 24 hours
SMILES: N#CSO [hypothiocyanite ion, hypothiocyanite]
